Test results reported in patent US8088819B2, “Derivatives of substituted 3-phenyl-1-(phenylthienyl)propan-1-ones and of 3-phenyl-1-(phenylfuranyl) propan-1-ones, preparation and use” (priority 2006, dated 2012).

Key:
[1] = system: target genes of the PPARs; test: Expression of target genes of the PPARs in hepatic and muscle tissues of the db/db mouse, quantitative RT-PCR; format: in vivo; details: db/db mice; 50 mpk; 28 days
Procedure: The efficacy of the compound according to the invention is also evaluated by measuring, in the hepatic and muscle tissues, the expression of genes involved in carbohydrate and lipid metabolism, and the dissipation of energy. The levels of expression of each gene are normalized relative to the level of expression of the reference genes 36B4 in the liver and 18S in the skeletal muscle. The induction factor, i.e. the ratio of the relative signal (induced by the compound according to the invention) to the mean of the relative values of the control group, is then calculated. The higher this factor, the greater the gene expression activating character of the compound. The final result is represented as the mean of the induction values in each experimental group.
Female db/db mice were kept under a cycle of light and darkness of 12/12 hours at a constant temperature of 20±3° C. After acclimation for one week, the mice were weighed and put in groups of 8 animals selected so that the distribution of their body weight and of their plasma lipid levels, determined for the first time before the experiment, are uniform. The test compounds were suspended in carboxymethylcellulose (Sigma C4888) and administered by intragastric force feeding, at a rate of once per day for 28 days at the chosen dose. The animals had free access to water and to food (standard diet). The food intake and the weight gain are recorded throughout the experiment. At the end of the experiment, the animals were anesthetized after fasting for 4 hours, a blood sample was taken using anticoagulant (EDTA), then the mice were weighed and euthanased. The plasma was separated by centrifugation at 3000 rev/min for 20 minutes, and the samples were stored at +4° C.
Samples of hepatic and muscle tissues were taken and frozen immediately in liquid nitrogen and then stored at −80° C. for later analyses. […]
(§1) 1 μg of total RNA (quantified by UV spectrophotometry) was then reverse-transcribed to complementary DNA by reaction for 1 hour at 37° C. in a total volume of 30 μl containing buffer 1× (Invitrogen), 1.5 mM of DTT, 0.18 mM of dNTPs (Promega), 200 ng of pdN6 (Amersham), 30 U of RNase inhibitor (Promega) and 1 μl of MMLV-RT (Invitrogen).
The quantitative PCR experiments were carried out using the MyiQ Single-Color Real-Time PCR Detection System (Biorad, Marnes-la-Coquette, France) and were performed using the iQ SYBR Green Supermix kit following the supplier's recommendations, in 96-well plates, on 5 μL of diluted reverse-transcription reaction mixture with a hybridization temperature of 60° C. […]
The amount of fluorescence emitted is directly proportional to the amount of complementary DNA present at the start of the reaction and amplified during PCR. […] The relative expression levels of each target are thus determined using the efficacy curves obtained with the points in the range.
The levels of expression of the genes of interest were then normalized, […] relative to the level of expression of the reference gene 36B4 (whose specific primers are: sense primer: 5′-[…]-3′ (SEQ ID No. 19) and antisense primer: 5′-[…]-3′ (SEQ ID No. 20)), and in the muscle tissue relative to the level of expression of the reference gene 18S (whose specific primers are: sense primer: 5′-[…]-3′ (SEQ ID No. 21) and antisense primer: 5′-[…]-3′ (SEQ ID No. 22)). The induction factor was calculated for each sample. […]

[2] = system: target genes of the PPARs; test: Expression of PPARδ target genes in skeletal muscle of the C57Bl6 mouse (compounds 4 and 7), quantitative RT-PCR; format: in vivo; details: C57Bl6 mice; 50 mpk; 14 days
From the text: The PPARδ agonistic properties of the molecules according to the invention previously measured in vitro should be reflected at the level of the skeletal muscle in overexpression of the target genes directly under the control of the PPARδ receptor: the genes that were investigated in this experiment are the genes coding for PDK4 (enzyme of carbohydrate metabolism), CPT1b (enzyme of lipid metabolism), UCP2 and UCP3 (mitochondrial transporters involved in thermoregulation).
Female C57Bl6 mice were kept under a cycle of light and darkness of 12/12 hours at a constant temperature of 20±3° C. After acclimation for one week, the mice were weighed and put into groups of 6 animals selected so that the distribution of their body weight, of their plasma lipid levels and of total cholesterol determined for the first time before the experiment, is uniform. The test compounds were suspended in carboxymethylcellulose (Sigma C4888) and administered by intragastric force feeding, at a rate of once per day for 14 days at the chosen dose. The animals had free access to water and to food (standard diet). At the end of the experiment, the animals were anesthetized after fasting for 4 hours, a blood sample was taken using anticoagulant (EDTA), then the mice were weighed and euthanased. The plasma was separated by centrifugation at 3000 rev/min for 20 minutes, and the samples were stored at +4° C.
Samples of skeletal muscle tissue were taken and frozen immediately in liquid nitrogen and then stored at −80° C. for later analyses.
The total RNA was extracted from fragments of gastrocnemius skeletal muscle using the RNeasy® Fibrous Tissue kit (Qiagen) following the manufacturer's instructions.
as §1, with “based on the spectrophotometer reading)” for “by UV spectrophotometry)”
The quantitative PCR experiments were carried out using the MyiQ Single-Color Real-Time PCR Detection System (Biorad, Marnes-la-Coquette, France) and were performed using the iQ SYBR Green Supermix kit following the supplier's recommendations, in 96-well plates, on 5 μl of diluted reverse transcription reaction mixture with a hybridization temperature of 60° C. Primer pairs specific to the genes under investigation were used:
The amount of fluorescence emitted is directly proportional to the amount of complementary DNA present at the start of the reaction and amplified during PCR. For each target investigated, a range is produced by successive dilutions of a pool constituted of a few microliters of various reverse transcription reaction mixtures. The relative expression levels of each target are thus determined using the efficacy curves obtained with the points in the range.
The levels of expression of the genes of interest were then normalized relative to the level of expression of the reference gene 18S (whose specific primers are: […]
The induction factor, i.e. the ratio of the relative signal (induced by the compound according to the invention) to the mean of the relative values of the control group, was then calculated for each sample. The higher this factor, the greater the gene expression activating character of the compound. The final result is represented as the mean of the induction values in each experimental group.

CC(C)(Oc1ccc(CCC(=O)c2ccc(-c3ccc(C(F)(F)F)cc3)s2)c(Cl)c1Cl)C(=O)O [Compound 2, 2-(2,3-dichloro-4-(3-oxo-3-(5-(4-(trifluoromethyl)phenyl)thien-2-yl)propyl)phenoxy)-2-methylpropanoic acid]
significant increase: expression of the gene coding for ACOX1 in the liver [1] | expression of the gene coding for CPT1b in the skeletal muscle [1] | expression of the gene coding for PDK4 in the liver [1] | expression of the gene coding for PDK4 in the skeletal muscle [1] | expression of the gene coding for UCP2 in the skeletal muscle [1]

CC(C)(Oc1ccc(CCC(O)c2ccc(-c3ccc(C(F)(F)F)cc3)s2)c(Cl)c1Cl)C(=O)O (stereo not shown) [Compound 4, 2-(2,3-dichloro-4-(3-hydroxy-3-(5-(4-(trifluoromethyl)phenyl)thien-2-yl)propyl)phenoxy)-2-methylpropanoic acid]
significant increase: expression of the gene coding for CPT1b in skeletal muscle [2] | expression of the gene coding for PDK4 in skeletal muscle [2] | expression of the gene coding for UCP2 in skeletal muscle [2] | expression of the gene coding for UCP3 in skeletal muscle [2]

CC(C)(Oc1ccc(CCC(OCc2ccccc2)c2ccc(-c3ccc(C(F)(F)F)cc3)s2)c(Cl)c1Cl)C(=O)O (stereo not shown) [Compound 7, 2-(4-(3-(benzyloxy)-3-(5-(4-(trifluoromethyl)phenyl)thien-2-yl)propyl)-2,3-dichlorophenoxy)-2-methylpropanoic acid]
significant increase: expression of the gene coding for CPT1b in skeletal muscle [2] | expression of the gene coding for PDK4 in skeletal muscle [2] | expression of the gene coding for UCP2 in skeletal muscle [2] | expression of the gene coding for UCP3 in skeletal muscle [2]
